These results are taken from PMC7683729, “Altered conformational sampling along an evolutionary trajectory changes the catalytic activity of an enzyme” (Nature Communications, 2020).

One data set deals with T1, AncCDT-5.
T1 construct: ancestral protein ending at Lys235; pDOTS7 vector, His6-tagged, expressed in E. coli delta-pheA; IMAC and SEC; predominantly monomeric
In words: end-point spectrophotometric phenylpyruvate formation ([…] nm). It is filed as biochemical. The following applies: equal volumes of protein in 20 mM Na2HPO4, 150 mM NaCl pH 7.4 and prephenate in 50 mM Na2HPO4 pH 8.0; room temperature (20–25 °C).

Data set [1] concerns the molecule itself. In words: SEC-MALS; 100 μL of each protein loaded at 10 mg mL^-1 on Superdex 200 10/300 GL; 20 mM Na2HPO4, 150 mM NaCl, pH 7.4; 0.5 mL min^-1; single experiment (n = 1).

In the case of `O=C(O)C(=O)CC1(C(=O)O)C=CC(O)C=C1` (centres unmarked) [prephenate], the Km (in general, the substrate concentration at which the rate is half of its maximum) in the data set with AncCDT-5 amounted to 277 ± 4 µM.

B1: cyclohexadienyl dehydratase from Pseudomonas aeruginosa (PaCDT) (enzyme, UniProt Q01269 26-268, looked up)
chain: QESRLDRILESGVLRVATTGDYKPFSYRTEEGGYAGFDVDMAQRLAESLGAKLVVVPTSWPNLMRDFADDRFDIAMSGISINLERQRQAYFSIPYLRDGKTPITLCSEEARFQTLEQIDQPGVTAIVNPGGTNEKFARANLKKARILVHPDNVTIFQQIVDGKADLMMTDAIEARLQSRLHPELCAVHPQQPFDFAEKAYLLPRDEAFKRYVDQWLHIAEQSGLLRQRMEHWLEYRWPTAHGK
notes: cyclohexadienyl dehydratase, Pseudomonas aeruginosa, UniProt Q01269 residues 26-268; PDB 5HPQ and 6BQE number - 11); source: E. coli K-12 ΔpheA (pDOTS7), IMAC-purified; not shown: His6, N-terminal, kept
B1: the stoichiometry N – broadly, a count of units in the complex or per binding partner – in data set [1] was found to be 3.
